Some test systems named below: HCT-15 colon; HL-60(TB) leukemia; MCF7 breast; MALME-3M melanoma; RXF 393 renal; 786-0 renal; NCI-H522 lung; NCI/ADR-RES ovarian; HOP-18 NSCLC; HCC-2998 colon.
Test in all cases: growth of human tumour cells (NCI), 48 h

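Tested at 5 concentrations; 48 h exposure; 96-well plates; endpoints linearly interpolated, else capped at highest concentration. Abbreviation: GI50, concentration required for 50% inhibition of growth. At the TGI there is no net growth.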

Consider `CCN(CC)CCNc1ccc2ncn3c4ccc(O)cc4c(=O)c1c23`, for which the TGI in the experiment with HCT-15 colon turned out to be 13 µM; in the experiment on HL-60(TB) leukemia it was 11.6 µM; in the experiment with MCF7 breast it was 12.6 µM; in the experiment with MALME-3M melanoma, 15.8 µM; with RXF 393 renal, 1.96 µM; in the experiment with 786-0 renal, 14.1 µM. In addition, the TGI in the experiment with NCI-H522 lung came out at 15.7 µM; in the experiment with NCI/ADR-RES ovarian it was 16.1 µM; with HOP-18 NSCLC, 33.3 µM; in the experiment with HCC-2998 colon it was 18.1 µM.
As to `CSCCC(C(=O)O)N(C)C` (stereo not drawn), the TGI in the experiment with HCT-15 colon, in the experiment with HL-60(TB) leukemia, in the experiment on MCF7 breast, in the experiment on MALME-3M melanoma, in the experiment with RXF 393 renal and with 786-0 renal was more than 100 µM in each case. In addition, the TGI with NCI-H522 lung and with NCI/ADR-RES ovarian was more than 100 µM throughout.
Consider `C=C(C#N)C(=O)OCC(CC)CC.C=C(C#N)C(=O)OCC(CC)CC.CS(C)=O.CS(C)=O.Nc1c(N=Nc2ccc(-c3ccc(N=Nc4cc(S(=O)(=O)[O-])c5ccccc5c4N)cc3)cc2)cc(S(=O)(=O)[O-])c2ccccc12.[Pt+2]`, for which the GI50 in the experiment on HCT-15 colon is 33.2 µM; with HL-60(TB) leukemia, 15.8 µM; in the experiment on MCF7 breast it was 24.2 µM; with MALME-3M melanoma, 21.8 µM; in the experiment on RXF 393 renal it was 19.5 µM; in the experiment with NCI-H522 lung, 13.7 µM. Besides, the results for the GI50 in the experiment on NCI/ADR-RES ovarian, in the experiment with HOP-18 NSCLC and with HCC-2998 colon were 34 µM, 22 µM and 48.9 µM, respectively. The TGI in the experiment on HCT-15 colon is more than 69.3 µM; in the experiment with HL-60(TB) leukemia, 23.6 µM; in the experiment with MCF7 breast, more than 100 µM; with MALME-3M melanoma it was 50 µM; in the experiment with RXF 393 renal, 51.1 µM; with NCI-H522 lung it was 19.3 µM. Also, the values for the TGI with NCI/ADR-RES ovarian, in the experiment on HOP-18 NSCLC and with HCC-2998 colon were 91.7 µM, 53.9 µM and more than 100 µM, respectively.
Take `O=C1c2cc(O)c(O)cc2O[C@H](c2ccc(O)c(O)c2)[C@H]1O`: the TGI with HCT-15 colon, in the experiment with HL-60(TB) leukemia, in the experiment with MCF7 breast, with 786-0 renal, in the experiment with NCI-H522 lung and in the experiment with NCI/ADR-RES ovarian was more than 100 µM throughout. In addition, in the experiment with HCC-2998 colon, the TGI was more than 100 µM.
For the compound `CN1C(=O)CC(=O)N1/C(=C/c1ccccc1)c1ccccc1`, the TGI in the experiment on MCF7 breast was more than 100 µM; in the experiment with RXF 393 renal, 54.1 µM; in the experiment on NCI/ADR-RES ovarian it was more than 100 µM; with HCC-2998 colon it was more than 100 µM.
As to `O=C1c2cc3c(cc2-c2c1c1ccc(Cl)cc1c(=O)n2C[C@H](O)CO)OCO3`, the GI50 was 0.11 µM in the experiment with HCT-15 colon; 0.0331 µM in the experiment on HL-60(TB) leukemia; less than 0.01 µM in the experiment on MCF7 breast; 0.0275 µM in the experiment on RXF 393 renal; 0.0422 µM in the experiment on NCI-H522 lung; 0.0322 µM in the experiment with NCI/ADR-RES ovarian. Besides, in the experiment with HCC-2998 colon, the GI50 was 0.122 µM. The TGI in the experiment with HCT-15 colon was found to be 1.28 µM; with HL-60(TB) leukemia it was 3.1 µM; in the experiment with MCF7 breast it was 0.759 µM; in the experiment on RXF 393 renal, 0.126 µM; in the experiment on NCI-H522 lung, 1.82 µM; in the experiment with NCI/ADR-RES ovarian, 1.12 µM. This compound came in with a TGI in the experiment with HCC-2998 colon of 0.701 µM.
As to `O=c1[nH]c2[nH]c(=S)[nH]c(=S)c2[nH]1`, the TGI with HCT-15 colon, in the experiment with HL-60(TB) leukemia, with MALME-3M melanoma, in the experiment with RXF 393 renal, with 786-0 renal and in the experiment on NCI-H522 lung was more than 100 µM in each case. For the same compound, the TGI in the experiment on NCI/ADR-RES ovarian and with HCC-2998 colon was more than 100 µM each time.
On to `C=CCNC(=O)C(C)C1CCC2(C)C=CC(=O)C(C)=C2C1O` (stereo not drawn), for which the TGI in the experiment with HCT-15 colon, in the experiment on HL-60(TB) leukemia, in the experiment on MCF7 breast, with RXF 393 renal, in the experiment on NCI-H522 lung and with NCI/ADR-RES ovarian was more than 100 µM in each case. The TGI in the experiment with HOP-18 NSCLC and with HCC-2998 colon was more than 100 µM in each case.
As to `COc1ccc2nc3cc(Cl)ccc3c(NC(C)CCCN(CCCl)CCCl)c2c1` (stereo not drawn), the TGI worked out at 6.56 µM in the experiment with HCT-15 colon; 0.94 µM with HL-60(TB) leukemia; 9.63 µM in the experiment with MALME-3M melanoma; 4.9 µM in the experiment on RXF 393 renal; 3.87 µM in the experiment with 786-0 renal; 2.24 µM in the experiment with NCI-H522 lung. Further, the TGI with HCC-2998 colon was determined as 9.61 µM.
Take `Oc1ccc(C(=C(Br)c2ccccc2)c2ccc(O)cc2)cc1`: the TGI with HCT-15 colon was 14.3 µM; in the experiment on HL-60(TB) leukemia it was more than 100 µM; in the experiment with MCF7 breast it was 12.4 µM; with MALME-3M melanoma it was 18 µM; in the experiment on RXF 393 renal, 27.2 µM; in the experiment with NCI-H522 lung, 17.6 µM. Moreover, the results for the TGI in the experiment with NCI/ADR-RES ovarian and in the experiment with HCC-2998 colon were 12.6 µM and 21.2 µM, respectively.
For `O=C1c2ccccc2C(=O)c2[nH]cnc21`, the TGI in the experiment with HCT-15 colon is more than 100 µM; in the experiment with HL-60(TB) leukemia, more than 100 µM; in the experiment with MALME-3M melanoma it was 57.3 µM; in the experiment with RXF 393 renal it was more than 100 µM; in the experiment on 786-0 renal it was more than 100 µM; in the experiment on NCI-H522 lung, more than 100 µM. Moreover, the TGI in the experiment on HCC-2998 colon was more than 100 µM.
`O=C1C(Cl)N(c2ccccc2Cl)C1c1c[nH]c2ccccc12` (stereo not drawn): the TGI in the experiment on HL-60(TB) leukemia, in the experiment on MALME-3M melanoma, with RXF 393 renal and with NCI-H522 lung was more than 100 µM throughout.

For the origin of these results see PubChem BioAssay (NCI).
